We go through one molecule from ChEMBL document CHEMBL4334533, “Design, synthesis, and validation of novel nitrogen-based chalcone analogs against triple negative breast cancer” (Eur J Med Chem, 2020).

Calls of active or inactive are those of the source. No cut-off for these calls is given here.

In experiment [1] the test system is MDA-MB-231. Briefly: Antimigratory activity in human MDA-MB-231 cells assessed as wound diameter at 5 uM measured after 24 hrs by microscopic analysis. The class given is functional, cell-based.
Experiment [2] relates to MDA-MB-231. Kind of experiment: Antiproliferative activity against human MDA-MB-231 cells assessed as inhibition of cell growth measured after 48 hrs by microplate reader analysis. The format is functional, cell-based. Particulars: MDA-MB-231, 48 h.
Experiment [3] has as its system MDA-MB-468. Kind of experiment: Induction of apoptosis in human MDA-MB-468 cells assessed as viable cells at 8 uM measured after 24 hrs by AnnexinV/7-AAD staining based flow cytometric analysis (reference value: 94.1%). Particulars: MDA-MB-468, 24 h, read-out: Activity. The format is functional. In general terms: Flow cytometry measures light scatter and fluorescence of single cells or particles in a stream.

In experiment [4] the test system is MDA-MB-468. Kind of experiment: Induction of apoptosis in human MDA-MB-468 cells assessed as early apoptotic cells at 8 uM measured after 48 hrs by AnnexinV/7-AAD staining based flow cytometric analysis (reference value: 4.15%). The class given is functional.
Experiment [5] deals with MDA-MB-231. Kind of experiment: Cell cycle arrest in human MDA-MB-231 cells assessed as accumulation at G2/M phase at 5 uM measured after 48 hrs by propidium iodide staining-based flow cytometric analysis relative to control. The class given is functional.
Experiment [6] concerns MCF7. Kind of experiment: Up regulation of pan-cadherin level in human MCF7 cells up to 10 uM by Western blot analysis. The class given is functional, cell-based. Background: Immunoblotting shows a protein as a band on a membrane.
In a further experiment the test system is Chorioallantoic membrane. Briefly: Antiangiogenic activity in Leghorn chicken fertilized egg chorioallantoic membrane assessed as reduction in number of blood vessels at 4 ug measured after 4 days by microscopic analysis relative to control. The format is functional, tissue-based. On the set-up: scale not given: the % may be the effect or the level left. Particulars: Gallus gallus.

Experiment [7] deals with MDA-MB-231. Kind of experiment: Inhibition of tumor growth in human MDA-MB-231 cells xenografted in nude mouse. The format is functional.
Experiment [8] concerns MDA-MB-231. Briefly: Antitumor activity against human MDA-MB-231 cells xenografted in athymic nude mouse assessed as time delay in tumor growth at 10 mg/kg, ip dosed 5 times per week preincubated for 15 days measured after 30 days relative to control. The class given is functional, organism-based. (Xenograft models place foreign cells or tissue in a host animal.)
Experiment [9] deals with MCF7. Briefly: Antiinvasive activity in human MCF7 cells assessed as reduction in 10% FBS-induced cell invasion at 5 uM by crystal violet staining based matrigel assay relative to control. The format is functional.

With `COc1cccc(C(=O)/C=C/c2ccc(N(CCCl)CCCl)cc2)c1`, the result in the experiment with MDA-MB-231 [1], with MCF7 [6], with MDA-MB-231 [8] and in the experiment with MCF7 [9] was Active. Besides, the 50% inhibitory concentration (IC50) in the experiment with MDA-MB-231 [2] was 8 µM. In addition, the viability at 8 µM in the experiment on MDA-MB-468 [3] came to 88.2%. In addition, the Activity in the experiment on MDA-MB-468 [4] was found to be 28%; with MDA-MB-231 [5] it was 47.27%; with Chorioallantoic membrane, 60.2%. Further, the “inhibition (INH)” value in the experiment on MDA-MB-231 [7] is on record as 57%.

The IC50 is the concentration needed to halve the response being measured.
